From patent US20250051338A1, “TYK2 DEGRADERS AND USES THEREOF” (Kymera Therapeutics, Inc., priority 2021, published 2025)

Legend:
Format in all cases: cell-based
TYK2 [1] = target: T1, TYK2 (Homo sapiens, UniProt P29597); assay: TYK2 degradation MSD assay in EBV-B cells; parameters: endogenous in cells; host or cells: EBV-B cells
In short: (§1)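 0.4 million cells/well; cpd 9-dose 1:3 titration, top 1–10 μM; 4–24 h, 37° C, 5% CO2; RIPA lysis; TYK2 capture/detection sandwich on MSD, SULFO-TAG anti-rabbit secondary; DC50 via 4-parameter fit.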

TYK2 [2] = target: T1, TYK2; assay: TYK2 degradation MSD assay in OCI-LY10 cells; parameters: endogenous in cells; host or cells: EBV-B cells; details: 4 to 24 hours incubation, read-out: TYK2 MSD DC50 rating in OCI-LY10
In short: as §1

TYK2 [3] = target: T1, TYK2; assay: TYK2 degradation MSD assay in human PBMC cells; parameters: endogenous in cells; host or cells: human PBMC; details: 4 to 24 hours incubation, read-out: TYK2 MSD DC50 rating in human PBMC
In short: as §1

[4] = 4 to 24 hours incubation, read-out: TYK2 MSD DC50 rating in EBV-B

T1 sequence (P29597 whole entry): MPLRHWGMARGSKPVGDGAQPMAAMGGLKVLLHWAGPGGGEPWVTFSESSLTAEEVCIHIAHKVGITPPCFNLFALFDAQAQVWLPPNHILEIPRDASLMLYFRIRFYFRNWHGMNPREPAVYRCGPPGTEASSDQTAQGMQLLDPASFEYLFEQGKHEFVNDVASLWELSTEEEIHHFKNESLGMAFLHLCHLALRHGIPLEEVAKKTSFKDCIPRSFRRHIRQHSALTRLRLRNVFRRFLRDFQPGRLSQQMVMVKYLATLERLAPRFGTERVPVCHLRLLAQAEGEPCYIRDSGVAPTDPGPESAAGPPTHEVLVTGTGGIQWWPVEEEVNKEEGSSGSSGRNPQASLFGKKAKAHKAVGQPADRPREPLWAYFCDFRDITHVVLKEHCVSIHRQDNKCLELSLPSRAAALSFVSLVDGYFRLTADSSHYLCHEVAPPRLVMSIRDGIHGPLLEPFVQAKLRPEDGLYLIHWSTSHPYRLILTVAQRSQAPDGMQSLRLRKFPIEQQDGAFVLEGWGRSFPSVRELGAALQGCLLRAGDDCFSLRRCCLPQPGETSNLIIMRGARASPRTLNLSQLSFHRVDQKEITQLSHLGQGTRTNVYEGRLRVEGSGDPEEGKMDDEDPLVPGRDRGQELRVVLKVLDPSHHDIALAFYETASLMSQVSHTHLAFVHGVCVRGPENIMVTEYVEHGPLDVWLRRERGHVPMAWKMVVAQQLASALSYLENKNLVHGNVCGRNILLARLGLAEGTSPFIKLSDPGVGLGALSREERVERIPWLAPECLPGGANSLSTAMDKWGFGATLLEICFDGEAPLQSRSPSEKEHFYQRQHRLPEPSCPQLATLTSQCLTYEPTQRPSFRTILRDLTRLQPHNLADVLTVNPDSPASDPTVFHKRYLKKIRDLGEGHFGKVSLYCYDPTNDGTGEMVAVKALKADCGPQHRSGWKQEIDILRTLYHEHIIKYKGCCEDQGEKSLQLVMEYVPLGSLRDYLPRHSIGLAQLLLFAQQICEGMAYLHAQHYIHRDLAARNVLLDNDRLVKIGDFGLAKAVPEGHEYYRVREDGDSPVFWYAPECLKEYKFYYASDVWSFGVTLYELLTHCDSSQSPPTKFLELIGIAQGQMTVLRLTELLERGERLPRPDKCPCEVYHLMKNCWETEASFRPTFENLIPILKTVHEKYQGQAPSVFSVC

Structure (SMILES)	DC50 (TYK2 [1]; [4]) [nM]	DC50 (TYK2 [2]) [nM]	DC50 (TYK2 [3]) [nM]	DC50 (TYK2 [1]; read-out: TYK2 MSD DC50 rating in EBV-B, 4 to 24 hours incubation) [nM]
CNc1cc(Nc2cccn(-c3ccc(C(=O)N4CCN([C@H]5CC[C@H](c6ccc(-c7ccc8c(c7)n(C)c(=O)n8C7CCC(=O)NC7=O)cc6)CC5)CC4)cn3)c2=O)nn2c(C(=O)N[C@@H]3C[C@@H]3F)cnc12 (stereo partly drawn) [Example K380]	< 1	< 1	< 1	–
CNc1cc(Nc2cccn(-c3ccc(C(=O)N4CCN(C(=O)C5CC(N6CCC(OCCCc7ccc8c(c7)n(C)c(=O)n8C7CCC(=O)NC7=O)CC6)C5)CC4)cn3)c2=O)nn2c(C(=O)N[C@@H]3C[C@@H]3F)cnc12 (stereo partly drawn) [Example K423]	> 100	1 to 10	> 100	–
CNc1cc(-c2ccc(-c3ccc(CN4CCC(CN5CCN(c6ccc7c(c6)n(C)c(=O)n7C6CCC(=O)NC6=O)CC5)CC4)cn3)cc2)nn2c(C(=O)N[C@@H]3C[C@@H]3F)cnc12 (stereo partly drawn) [Example K493]	> 100	1 to 10	> 100	–
CNc1cc(Nc2cccc(CN3CCC(CN4CCN(c5ccc6c(c5)n(C)c(=O)n6C5CCC(=O)NC5=O)CC4)CC3)c2)nn2c(C(=O)N[C@@H]3C[C@@H]3F)cnc12 (stereo partly drawn) [Example K490]	> 100	< 1	> 100	–
CNc1cc(Nc2cccn(-c3ccc(C(=O)N4CCN(CC5CCN(c6ccc(-c7ccc8c(c7)n(C)c(=O)n8C7CCC(=O)NC7=O)cc6)CC5)CC4)cn3)c2=O)nn2c(C(=O)N[C@@H]3C[C@@H]3F)cnc12 (stereo partly drawn) [Example K374]	< 1	> 100	> 100	–
CNc1cc(-c2ccc(C3CCN(CC4CCN(c5ccc(-c6ccc7c(c6)n(C)c(=O)n7C6CCC(=O)NC6=O)cc5)CC4)CC3)cc2)c2n3c(cnc13)C(=O)N(C1CC1)C2 (stereo not drawn) [Example K550]	> 100	> 100	> 100	–
CNc1cc(Nc2cccc(CN3CCN(c4ccc(-c5ccc6c(c5)n(C)c(=O)n6C5CCC(=O)NC5=O)cc4)CC3)c2)nn2c(C(=O)N[C@@H]3C[C@@H]3F)cnc12 (stereo partly drawn) [Example K486]	> 100	< 1	> 100	–
CNc1cc(Nc2cccc(-c3ccc(CN4CCN(c5cccc6c(N7CCC(=O)NC7=O)cncc56)CC4)cn3)c2)nn2c(C(=O)N[C@@H]3C[C@@H]3F)cnc12 [Example K467]	10 to 100	> 100	> 100	–
CNc1cc(Nc2cccc(N3CCN(CC4CCN(c5ccc(-c6ccc7c(c6)n(C)c(=O)n7C6CCC(=O)NC6=O)cc5)CC4)CC3)c2)nn2c(C(=O)N[C@@H]3C[C@@H]3F)cnc12 (stereo partly drawn) [Example K466]	< 1	> 100	> 100	–
Cn1c(=O)n(C2CCC(=O)NC2=O)c2ccc(CCCCNC(=O)c3cccc(Nc4ccc5ncc(C(=O)N[C@@H]6C[C@@H]6F)n5n4)c3)cc21 (stereo partly drawn) [Example K328]	–	> 100	> 100	> 100
CNc1cc(Nc2cccc(-c3ccc(CN4CCN(c5ccc(-c6ccc7c(c6)n(C)c(=O)n7C6CCC(=O)NC6=O)cc5)CC4)cn3)c2)nn2c(-c3cn(C(C)C)nn3)cnc12 (stereo not drawn) [Example K534]	> 100	1 to 10	> 100	–
Cn1c(=O)n(C2CCC(=O)NC2=O)c2ccc(-c3ccc(N4CCN(Cc5ccc(-c6cccc(Nc7ccc8ncc(C(=O)NC9CC9)n8n7)c6)nc5)CC4)cc3)cc21 (stereo not drawn) [Example K415]	1 to 10	> 100	> 100	–
CNc1cc(Nc2cccc(-c3ccc(CN4CCN(c5ccc(-c6ccc7c(c6)n(C)c(=O)n7C6CCC(=O)NC6=O)cc5)CC4)cn3)c2C(F)F)nn2c(C(=O)N[C@@H]3C[C@@H]3F)cnc12 (stereo partly drawn) [Example K611]	> 100	1 to 10	> 100	–
CNc1cc(Nc2cccc(-c3ccc(CN4CCN(C5CCN(c6ccc7c(c6)n(C)c(=O)n7C6CCC(=O)NC6=O)CC5)CC4)cn3)c2)nn2c(C(=O)N[C@@H]3C[C@@H]3F)cnc12 (stereo partly drawn) [Example K435]	> 100	< 1	> 100	–

The next lines start with results.

DC50 (TYK2 [1]; [4]) [nM]	DC50 (TYK2 [2]) [nM]	DC50 (TYK2 [3]) [nM]	Structure (SMILES)	DC50 (TYK2 [1]; read-out: TYK2 MSD DC50 rating in EBV-B, 4 to 24 hours incubation) [nM]
> 100	< 1	> 100	CNc1cc(Nc2cccc(C#CCN3CCN(c4ccc(-c5ccc6c(c5)n(C)c(=O)n6C5CCC(=O)NC5=O)cc4)CC3)c2OC)nn2c(C(=O)N[C@@H]3C[C@@H]3F)cnc12 (mixture of isomers) [Example K543, 6-({3-[3-(4-{4-[1-(2,6-Dioxopiperidin-3-yl)-3-methyl-2-oxo-1,3-benzodiazol-5-yl]phenyl}piperazin-1-yl)prop-1-yn-1-yl]-2-methoxyphenyl}amino)-N-[(1R,2S)-2-fluorocyclopropyl]-8-(methylamino)imidazo[1,2-b]pyridazine-3-carboxamide]	–
> 100	> 100	< 1	CNc1cc(Nc2cccn(-c3ccc(C(=O)NCCCCCCCCCc4cccc5c4n(C)c(=O)n5C4CCC(=O)NC4=O)cn3)c2=O)nn2c(C(=O)N[C@@H]3C[C@@H]3F)cnc12 (stereo partly drawn) [Example K266]	–
> 100	1 to 10	> 100	CNc1cc(Nc2cccc(-c3ccc(C(=O)N4CCN(CC5CCN(c6ccc(-c7ccc8c(c7)n(C)c(=O)n8C7CCC(=O)NC7=O)cc6)CC5)CC4)cn3)c2OC)nn2c(C(=O)N[C@@H]3C[C@@H]3F)cnc12 (stereo partly drawn) [Example K628]	–
1 to 10	> 100	1 to 10	CNC(=O)c1cnc(Nc2ccc(C(=O)NCCOCCOCCc3ccc4c(c3)n(C)c(=O)n4C3CCC(=O)NC3=O)cn2)cc1Nc1cccc(-c2ncc(F)cn2)c1OC (stereo not drawn) [Example K112]	–
< 1	> 100	> 100	CNC(=O)c1cnc(Nc2ccc(CN(C)C3CCN(c4cccc5c4n(C)c(=O)n5C4CCC(=O)NC4=O)C3)cn2)cc1Nc1cccc(-c2ncc(F)cn2)c1OC (stereo not drawn) [Example K171]	–
> 100	< 1	> 100	CNc1cc(Nc2cccn(-c3ccc(C(=O)N[C@H]4CC[C@H](CN(C)C5CCN(Cc6cccc7c6n(C)c(=O)n7C6CCC(=O)NC6=O)CC5)CC4)cn3)c2=O)nn2c(C(=O)N[C@@H]3C[C@@H]3F)cnc12 (stereo partly drawn) [Example K449]	–
> 100	1 to 10	> 100	CNc1cc(Nc2cccc(CN3CCC(OCC#Cc4cccc5c4n(C)c(=O)n5C4CCC(=O)NC4=O)CC3)c2)nn2c(C(=O)NC3CC3)cnc12 (stereo not drawn) [Example K595]	–
> 100	> 100	> 100	CNc1cc(Nc2cccc(CN(C)C3CCN(c4cccc5c4n(C)c(=O)n5C4CCC(=O)NC4=O)CC3)c2)nn2c(C(=O)NC3CC3)cnc12 (stereo not drawn) [Example K597]	–
> 100	> 100	> 100	CNc1cc(Nc2cccn(-c3cc(C(=O)NCCOCCOCCc4cccc5c4n(C)c(=O)n5C4CCC(=O)NC4=O)ccn3)c2=O)nn2c(C(=O)N[C@@H]3C[C@@H]3F)cnc12 (stereo partly drawn) [Example K238]	–
1 to 10	> 100	1 to 10	CNC(=O)c1cnc(Nc2ccc(CN3CCCC4(C3)CN(c3ncc(C#Cc5ccc6c(c5)n(C)c(=O)n6C5CCC(=O)NC5=O)cn3)C4)cn2)cc1Nc1cccc(-c2ncc(F)cn2)c1OC (stereo not drawn) [Example K145]	–
> 100	< 1	> 100	CNc1cc(Nc2cccc(-c3ccc(CN4CCC(N5CC(N6CCN(c7cccc8c7n(C)c(=O)n8C7CCC(=O)NC7=O)CC6)C5)CC4)cn3)c2)nn2c(C(=O)N[C@@H]3C[C@@H]3F)cnc12 (stereo partly drawn) [Example K517]	–
> 100	> 100	> 100	CNc1cc(Nc2cccc(-c3ccc(CN4CCN(c5ccc(-c6ccc7c(c6)n(C)c(=O)n7C6CCC(=O)NC6=O)cc5)CC4)cn3)c2OC)nn2ccnc12 (stereo not drawn) [Example K615]	–
> 100	> 100	> 100	CNc1cc(Nc2cccn(-c3ccc(C(=O)N4CC5(CCN(c6ccc7c(c6)n(C)c(=O)n7C6CCC(=O)NC6=O)CC5)C4)cn3)c2=O)nn2c(C(=O)N[C@@H]3C[C@@H]3F)cnc12 (stereo partly drawn) [Example K388]	–
> 100	> 100	1 to 10	CNC(=O)c1cnc(Nc2cc(C(=O)NCCCCc3cccc4c3n(C)c(=O)n4C3CCC(=O)NC3=O)ccn2)cc1Nc1cccc(-c2ncc(F)cn2)c1OC (stereo not drawn) [Example K128]	–
> 100	> 100	< 1	CNc1cc(Nc2cccn(-c3ccc(C(=O)NCCCCCCCc4cccc5c4n(C)c(=O)n5C4CCC(=O)NC4=O)cn3)c2=O)nn2c(C(=O)N[C@@H]3C[C@@H]3F)cnc12 (stereo partly drawn) [Example K265]	–
> 100	< 1	> 100	CNc1cc(Nc2cccc(-c3ccc(C(=O)N4CCN(c5ccc(-c6ccc7c(c6)n(C)c(=O)n7C6CCC(=O)NC6=O)cc5)CC4)cn3)c2)nn2c(C(=O)N[C@@H]3C[C@@H]3F)cnc12 (stereo partly drawn) [Example K633]	–
< 1	> 100	1 to 10	CNC(=O)c1cnc(Nc2ccc(CN3CC(C)(Cc4ccc5c(c4)n(C)c(=O)n5C4CCC(=O)NC4=O)C3)cn2)cc1Nc1cccc(-c2ncc(F)cn2)c1OC (stereo not drawn) [Example K142]	–
> 100	> 100	> 100	Cn1c(=O)n(C2CCC(=O)NC2=O)c2ccc(CCOCCOCCOCCOCCNc3cc(Nc4cccn(-c5ccccn5)c4=O)nn4c(C(=O)NC5C[C@@H]5F)cnc34)cc21 (stereo partly drawn) [Example K202]	–
> 100	> 100	> 100	Cn1c(=O)n(C2CCC(=O)NC2=O)c2ccc(CCCCNC(=O)c3ccccc3Nc3ccc4ncc(C(=O)N[C@@H]5C[C@@H]5F)n4n3)cc21 (stereo partly drawn) [Example K326]	–
> 100	> 100	1 to 10	CNC(=O)c1cnc(NC(=O)NCCCCCCCc2cccc3c2n(C)c(=O)n3C2CCC(=O)NC2=O)cc1Nc1cccc(-c2ncc(F)cn2)c1OC (stereo not drawn) [Example K185]	–
